Several values for one entry are separate records, joined by “and”; a condition that tells them apart may be missing. Equal entries are not always repeated. Inconclusive results and toxic doses are left out. Rule as the data show it: active = T/C of 150% or more; inactive = T/C below 125%.
System: L1210 leukemia ip in BDF1 mice, survival T/C
Assay: NCI In Vivo Anticancer Drug Screen. Data for tumor model L1210 Leukemia (intraperitoneal) in B6D2F1 (BDF1) mice
Conditions: endpoint: mean survival time, higher = longer survival
How it was run: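 Each compound was tested against a transplantable tumor grown in mice. The endpoint was survival, with treated animals benchmarked against vehicle controls as a simple ratio.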

[1] = dose: 100.0 mg/kg/injection, schedule: Q04DX003 (ip), vehicle: Klucel (hydroxypropylcellulose) (HPC)
[2] = dose: 200.0 mg/kg/injection, schedule: Q04DX003 (ip), vehicle: Klucel (hydroxypropylcellulose) (HPC)
[3] = dose: 100.0 mg/kg/injection, schedule: Q01DX001 (ip), vehicle: saline
[4] = dose: 200.0 mg/kg/injection, schedule: Q01DX001 (ip), vehicle: saline
[5] = dose: 400.0 mg/kg/injection, schedule: Q04DX003 (ip), vehicle: Klucel (hydroxypropylcellulose) (HPC)
[6] = dose: 100.0 mg/kg/injection, schedule: Q01DX009 (ip), vehicle: Klucel (hydroxypropylcellulose) (HPC)
[7] = dose: 200.0 mg/kg/injection, schedule: Q01DX009 (ip), vehicle: Klucel (hydroxypropylcellulose) (HPC)
[8] = dose: 100.0 mg/kg/injection, schedule: Q04DX003 (ip), vehicle: saline with Tween-80
[9] = dose: 200.0 mg/kg/injection, schedule: Q04DX003 (ip), vehicle: saline with Tween-80
[10] = dose: 400.0 mg/kg/injection, schedule: Q04DX003 (ip), vehicle: saline with Tween-80
[11] = dose: 100.0 mg/kg/injection, schedule: Q04DX003 (ip), vehicle: saline
[12] = dose: 200.0 mg/kg/injection, schedule: Q04DX003 (ip), vehicle: saline

Measured: T/C

CCCCCCCCCCCCCCCCCC(CC)c1ccccc1 (stereo not given)
inactive: dose: 100.0 mg/kg/injection, schedule: Q01DX001 (ip), vehicle: saline with Tween-80 104 % of control | dose: 200.0 mg/kg/injection, schedule: Q01DX001 (ip), vehicle: saline with Tween-80 94 % of control | dose: 400.0 mg/kg/injection, schedule: Q01DX001 (ip), vehicle: saline with Tween-80 94 % of control

CC(C)(C)OC(=O)NNC(=O)c1ccc([N+](=O)[O-])cc1
inactive: dose: 4.12 mg/kg/injection, schedule: Q01DX009 (ip), vehicle: Klucel (hydroxypropylcellulose) (HPC) 118 % of control | dose: 4.12 mg/kg/injection, schedule: Q01DX009 (ip), vehicle: saline 92 % of control | dose: 6.25 mg/kg/injection, schedule: Q01DX009 (ip), vehicle: Klucel (hydroxypropylcellulose) (HPC) 124 % of control | dose: 6.25 mg/kg/injection, schedule: Q01DX009 (ip), vehicle: saline 96 % of control | dose: 9.37 mg/kg/injection, schedule: Q01DX009 (ip), vehicle: Klucel (hydroxypropylcellulose) (HPC) 100 % of control | dose: 9.37 mg/kg/injection, schedule: Q01DX009 (ip), vehicle: saline 94 % of control | dose: 35.0 mg/kg/injection, schedule: Q01DX009 (ip), vehicle: saline 121 % of control | dose: 50.0 mg/kg/injection, schedule: Q04DX003 (ip), vehicle: Klucel (hydroxypropylcellulose) (HPC) 96 % of control | dose: 55.0 mg/kg/injection, schedule: Q01DX009 (ip), vehicle: saline 102 % of control | dose: 80.0 mg/kg/injection, schedule: Q01DX009 (ip), vehicle: saline 105 % of control | dose: 100.0 mg/kg/injection, schedule: Q01DX001 (ip), vehicle: other 102 % of control | [1] 93 % of control | dose: 120.0 mg/kg/injection, schedule: Q01DX009 (ip), vehicle: Klucel (hydroxypropylcellulose) (HPC) 92 % of control | dose: 180.0 mg/kg/injection, schedule: Q01DX009 (ip), vehicle: Klucel (hydroxypropylcellulose) (HPC) 97 % of control | dose: 200.0 mg/kg/injection, schedule: Q01DX001 (ip), vehicle: other 95 % of control | [2] 91 % of control

Cc1ccc(NC(=O)CCc2ccc(N3C(N)=NC(N)=NC3(C)C)cc2)cc1S(=O)(=O)F
inactive: dose: 100.0 mg/kg/injection, schedule: Q01DX001 (ip), vehicle: Klucel (hydroxypropylcellulose) (HPC) 90 % of control | dose: 200.0 mg/kg/injection, schedule: Q01DX001 (ip), vehicle: Klucel (hydroxypropylcellulose) (HPC) 108 % of control

CCSCN1CCN(CSCC)CC1
inactive: [3] 98 % of control | [4] 104 % of control

O=C1c2cccc(S(=O)(=O)O)c2C(=O)c2cccc([N+](=O)[O-])c21
inactive: [1] 98 % of control | [2] 91 % of control | [5] 94 % of control

CCOC(=O)c1cnc(SC)nc1Nc1ccc(OC)cc1
inactive: [6] 96 % of control | [1] 95 % of control | [7] 91 % of control | [2] 98 % of control | dose: 400.0 mg/kg/injection, schedule: Q01DX009 (ip), vehicle: Klucel (hydroxypropylcellulose) (HPC) 94 % of control | [5] 90 % of control

COc1ccccc1OCCOCCNC1CC2CCC1(C)C2(C)C (stereo not given)
inactive: [1] 88 % of control

CCSc1ccc2c(cc1=O)[C@@H](NC1OC(CO)C(O)C(O)C1O)CCc1cc(OC)c(OC)c(OC)c1-2 (stereo not given in full)
inactive: dose: 50.0 mg/kg/injection, schedule: Q01DX009 (ip), vehicle: other 105 % of control | dose: 100.0 mg/kg/injection, schedule: Q01DX009 (ip), vehicle: other 102 % of control | dose: 200.0 mg/kg/injection, schedule: Q01DX009 (ip), vehicle: other 114 % of control | dose: 400.0 mg/kg/injection, schedule: Q01DX009 (ip), vehicle: other 114 % of control

CCCCCCCCCCCCCC(=O)N(CCCC)CCCC
inactive: dose: 50.0 mg/kg/injection, schedule: Q01DX009 (ip), vehicle: carboxymethylcellulose (CMC) 98 % of control and 90 % of control | dose: 100.0 mg/kg/injection, schedule: Q01DX001 (ip), vehicle: carboxymethylcellulose (CMC) 94 % of control | dose: 100.0 mg/kg/injection, schedule: Q04DX003 (ip), vehicle: carboxymethylcellulose (CMC) 95 % of control | dose: 200.0 mg/kg/injection, schedule: Q01DX001 (ip), vehicle: carboxymethylcellulose (CMC) 93 % of control | dose: 200.0 mg/kg/injection, schedule: Q04DX003 (ip), vehicle: carboxymethylcellulose (CMC) 92 % of control | dose: 400.0 mg/kg/injection, schedule: Q01DX001 (ip), vehicle: carboxymethylcellulose (CMC) 98 % of control | dose: 400.0 mg/kg/injection, schedule: Q01DX009 (ip), vehicle: carboxymethylcellulose (CMC) 95 % of control and 104 % of control | dose: 400.0 mg/kg/injection, schedule: Q04DX003 (ip), vehicle: carboxymethylcellulose (CMC) 96 % of control

COc1ccc(NC(=O)Oc2ccccc2Cc2ccccc2)cc1
inactive: dose: 50.0 mg/kg/injection, schedule: Q01DX009 (ip), vehicle: Klucel (hydroxypropylcellulose) (HPC) 95 % of control | [6] 94 % of control | [1] 97 % of control | [7] 103 % of control | [2] 91 % of control

OCC1CC=CCC1 (stereo not given)
inactive: dose: 100.0 mg/kg/injection, schedule: Q01DX009 (ip), vehicle: saline with Tween-80 105 % of control | dose: 200.0 mg/kg/injection, schedule: Q01DX009 (ip), vehicle: saline with Tween-80 106 % of control | dose: 400.0 mg/kg/injection, schedule: Q01DX009 (ip), vehicle: saline with Tween-80 117 % of control

CC(=O)Nc1cc([N+](=O)[O-])c(C)c([N+](=O)[O-])c1
inactive: [8] 104 % of control | [9] 97 % of control | [10] 97 % of control

CCOC(=O)CCC(NC(=O)C1CSC(C)(C)N1C=O)C(=O)OCC (stereo not given)
inactive: [11] 104 % of control | [12] 93 % of control | dose: 400.0 mg/kg/injection, schedule: Q04DX003 (ip), vehicle: saline 98 % of control

Cc1ccc(S(=O)(=O)N(C)c2ccc3cc(Br)ccc3c2)cc1
inactive: dose: 100.0 mg/kg/injection, schedule: Q01DX005 (ip), vehicle: Klucel (hydroxypropylcellulose) (HPC) 94 % of control | [1] 95 % of control | dose: 200.0 mg/kg/injection, schedule: Q01DX005 (ip), vehicle: Klucel (hydroxypropylcellulose) (HPC) 100 % of control | [2] 97 % of control | dose: 400.0 mg/kg/injection, schedule: Q01DX005 (ip), vehicle: Klucel (hydroxypropylcellulose) (HPC) 91 % of control | [5] 97 % of control

C=C1C(=O)OC2/C=C(/C)C(OC(C)=O)CC(O)/C(C)=C\C(OC(=O)/C(C)=C\C)C12 (stereo not given)
inactive: dose: 40.0 mg/kg/injection, schedule: Q01DX009 (ip), vehicle: carboxymethylcellulose (CMC) 101 % of control | dose: 60.0 mg/kg/injection, schedule: Q01DX009 (ip), vehicle: carboxymethylcellulose (CMC) 104 % of control | dose: 80.0 mg/kg/injection, schedule: Q01DX009 (ip), vehicle: carboxymethylcellulose (CMC) 104 % of control | dose: 100.0 mg/kg/injection, schedule: Q01DX009 (ip), vehicle: carboxymethylcellulose (CMC) 98 % of control

COC(=O)CCC(=O)N1CCOCC1
inactive: [8] 88 % of control | [9] 90 % of control | [10] 88 % of control

CC(=O)O[C@H]1CC[C@H]2[C@@H]3[C@H](C)CC4=CC(=O)CCC4[C@H]3CC[C@]12C (stereo not given in full)
inactive: dose: 100.0 mg/kg/injection, schedule: Q01DX001 (sc), vehicle: steriod suspending solution 98 % of control | dose: 200.0 mg/kg/injection, schedule: Q01DX001 (sc), vehicle: steriod suspending solution 100 % of control | dose: 400.0 mg/kg/injection, schedule: Q01DX001 (sc), vehicle: steriod suspending solution 102 % of control

O=c1[nH]cnc2c1[nH]c(=S)n2C1OC(CO)C(O)C1O (stereo not given)
inactive: [3] 108 % of control | [4] 96 % of control | dose: 400.0 mg/kg/injection, schedule: Q01DX001 (ip), vehicle: saline 100 % of control

O=C1CCC(N2C(=O)C3C4c5ccccc5C(c5ccccc54)C3C2=O)C(=O)N1 (stereo not given)
inactive: [8] 97 % of control | [11] 97 % of control | [9] 93 % of control | [12] 89 % of control

C/C(CCCCCCCCC#N)=N/Nc1ccc([N+](=O)[O-])cc1[N+](=O)[O-]
inactive: [1] 93 % of control | [2] 93 % of control | [5] 98 % of control

CCOC(=O)C(COS(=O)(=O)c1ccc(C)cc1)(COS(=O)(=O)c1ccc(C)cc1)C(=O)OCC
inactive: dose: 100.0 mg/kg/injection, schedule: Q01DX009 (ip), vehicle: saline 92 % of control | [1] 97 % of control | dose: 200.0 mg/kg/injection, schedule: Q01DX009 (ip), vehicle: saline 94 % of control | [2] 93 % of control | [5] 93 % of control

From PubChem BioAssay AID248 (DTP/NCI, 2004)
